This note sets out measurements from patent US10766888B1, “HMOX1 inducers” (Mitobridge Inc., priority 2019, dated 2020).

SMILES strings stand for the structures.

Series [1] can be described thus: PD study: compound concentration in mouse liver. Format: in vivo, C57BL/6 mice. The settings on record: male, C57BL/6, mouse, 50 mg/kg, 50 mpk oral. On the procedure: 9-10 week old male C57BL/6 mice were dosed orally with 50 mg/kg of vehicle or compound formulated in 5% w/v tween 80 and 0.5% methyl cellulose. At indicated time points (3 and 6 hours or or 4 and 8 hours post-dosing as shown in the results below), whole blood was collected, animal was sacrificed and liver was collected. Blood samples were transferred to vials containing 4 μL of 10% w/v EDTA, centrifuged at 6000 rpm for 8 in below 10° C. to obtain plasma. Samples were frozen and later processed for HMOX1 protein levels as indicated below: […]

A further series concerns HMOX1. The series is described as follows: HMOX1 mRNA expression in HepG2 cells (Nanostring). The conditions noted are these: 24 hours treatment, mRNA fold change vs DMSO. It is filed as cell-based, human. As to the method: Example 147. HMOX1 Inducers of the Invention Strongly Increase In Vitro Expression of HMOX1
RNA Isolation and Quantification of Gene Expression
HepG2 cells were seeded at 250 k/well in 12-well tissue culture plates coated with collagen (collagen I, rat tail (thin plate coating); ENZO Life Sciences) for approximately 24 hours. The seeded cells were then treated with dose titration of the compound of Example 17 or dimethyl fumarate (DMF) (a Nrf2 activator; Fisher Scientific) via media change, with biological triplicates performed for each treatment. After approximately 24 hours of treatment, cells were visually inspected to confirm that no toxicity occurred with compound treatment. The treated cells were washed with PBS, aspirated, parafilmed and frozen at −80° C. prior to RNA isolation. RNA was isolated using Machery-Nagel isolation kit (NucleoSpin® RNA: catalog 740955.250) and then quantitated using ThermoFisher Nanodrop.
RNA was diluted for Nanostring gene expression analysis. […]
The relative mRNA levels of the HMOX1 gene in HepG2 cells treated with the compound of Example 17 or DMF were measured according to the methods described above. […]

The target of another series is T1, Human BACH1 (Homo sapiens, UniProt O14867).
T1 construct: 10×HIS-GP-BACH1(aa179-736)-Thrombin-FLAG; 10xHis (N); GP linker (Gly-Pro) (N); Thrombin cleavage site (C); FLAG (C); host or cells: Sf9 insect cells
T1 sequence (O14867 179-736): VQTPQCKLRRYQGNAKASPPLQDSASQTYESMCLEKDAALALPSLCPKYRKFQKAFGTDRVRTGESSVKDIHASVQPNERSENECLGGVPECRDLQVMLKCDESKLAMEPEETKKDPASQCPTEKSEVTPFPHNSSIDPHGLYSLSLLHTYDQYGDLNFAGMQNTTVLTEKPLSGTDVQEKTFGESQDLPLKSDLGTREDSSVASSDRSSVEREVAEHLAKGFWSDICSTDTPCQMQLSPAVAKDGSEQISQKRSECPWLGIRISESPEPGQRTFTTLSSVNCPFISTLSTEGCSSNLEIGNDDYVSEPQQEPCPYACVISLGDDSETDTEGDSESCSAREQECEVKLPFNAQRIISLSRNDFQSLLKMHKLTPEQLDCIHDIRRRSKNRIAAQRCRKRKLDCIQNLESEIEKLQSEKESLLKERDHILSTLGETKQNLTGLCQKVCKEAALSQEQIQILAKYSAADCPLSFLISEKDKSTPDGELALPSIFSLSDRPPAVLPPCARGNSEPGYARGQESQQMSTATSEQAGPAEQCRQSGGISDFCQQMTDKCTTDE
Description: Microscale thermophoresis (MST) assay / Bach 1 binding assay. The settings on record: 10 nM fluorescently labeled BACH1(aa179-736), 25° C. On the procedure: Example 146. Microscale Thermophoresis (MST) Assay/Bach 1 Binding Assay
Outline of Protein Expression/Production
Human BACH1 (construct-ID: 10×HIS-GP-BACH1(aa179-736)-Thrombin-FLAG) was expressed in Sf9 insect cells. Protein purification was performed using affinity chromatography, followed by size-exclusion chromatography. Quality of resulting protein was judged using SDS-PAGE analysis.
The MST technology is based on measurement of protein movement along a temperature gradient. Thereby, fluorescently labeled protein is loaded into capillaries, where an infrared laser heats a small volume. Before and during heating, fluorescent intensity is measured at the site of irradiation and the loss of fluorescence in the IR laser focus is quantified.
Two major factors contribute to change of fluorescence signal. First of all, the so-called TRIC (Temperature Related Intensity Change) effect is caused by the temperature-dependency of fluorophore's quantum yield. Herein, the extent of the temperature dependence depends on the chemical environment, which may be changed by the binding of a ligand (e.g. compound, peptide) to the target. Moreover, Kd value between ligand and target can depend on temperature. Second, thermophoresis, which is defined as movement of fluorescent molecules along temperature gradient, is a major contributor to change of fluorescence. Hereby, protein movement along the gradient depends on hydrodynamic radius, charge and hydration shell. These properties can change upon association of the labeled protein with another species, e.g. compound. Thereby, MST detects the differences in protein movement with increasing ligand concentration: from this, the fraction of ligand bound protein and a Kd value can be determined.
For Kd determination of compounds binding BACH1, the following protocol was applied: 10×HIS-GP-BACH1(aa179-736)-Thrombin-FLAG (expressed and purified at Proteros) was fluorescently labeled via its lysine-residues (2nd gen NHS-NT.647 dye).
Experiments were performed using the experimental device Monolith NT.115 Pico, NanoTemper Technologies, with MST power set to medium and excitation power set to 2% at a reaction temperature of 25° C.
10 nM fluorescently labeled BACH1 was applied to reaction buffer containing 50 mM HEPES pH 8.0, 100 mM NaCl, 5% glycerol, 0.05% Tween20 and 1 mM DTT in a reaction volume of 8 μL using Monolith NT.115 Premium Capillaries. Compounds were applied at a maximal concentration of 103 μM with 15 subsequent factor 2 dilutions.
A general note: In MST a laser heats a spot of the sample, and binding alters the fluorescence response.

In the case of `Cn1c(Nc2nc3ccccc3o2)nc2cc(C(=O)NCCOCCO)ccc21` [Example 17, 2-(benzo[d]oxazol-2-ylamino)-N-(2-(2-hydroxyethoxy)ethyl)-1-methyl-1H-benzo[d]imidazole-5-carboxamide], in series [1] (4 hours (Study 702), read-out: Liver Conc uM (4 h)), the concentration at 4 h was determined as 11 µM. The concentration at 8 h in series [1] (8 hours (Study 702), read-out: Liver Conc uM (8 h)) is 4.9 µM. Also, the “HMOX1 expression compared with DMF (in words)” value in the series on HMOX1 is given as “much more strongly than DMF”. On Human BACH1, the equilibrium dissociation constant (Kd) (in general, a measure of binding affinity in units of concentration) is 250 nM.
For the compound `COCCNC(=O)c1ccc2c(c1)nc(Nc1nc3ccc(OCCOC)cc3o1)n2C` [Example 56, 2-((6-(2-methoxyethoxy)benzo[d]oxazol-2-yl)amino)-N-(2-methoxyethyl)-1-methyl-1H-benzo[d]imidazole-5-carboxamide], at Human BACH1, binding was characterised by a dissociation constant (Kd) of 250 nM.
